Columns and labels:
[1] = tested on: primary OPC; assay: OPC differentiation assay (IncuCyte); type: cell-based, mouse; conditions: 1 μM, 60 hours in differentiation medium (FIG. 13)
Procedure: Images were taken every 10 hours followed by analysis using IncuCyte ZOOM software (2016B).
5,000 cells OPCs per well were seeded in a 96 wells plate and maintained overnight in proliferation media (Emery et al. 2013). […] OPC differentiation was monitored by continuous imaging. Images taken at ten hours intervals were analyzed by IncuCyte NeuroTrack software for the following parameters: Neurite length, Neurite branch points, Cell body clusters and Cell body cluster area. Statistics—For all comparisons, Student's t-test was performed using ≥3 independent biological repeats for each group (methodological selection of sample size was not applied).

[2] = tested on: Mut MEFs; assay: JC1 staining of intact and damaged mitochondria (mitochondrial membrane potential); type: cell-based, mouse
Procedure: Mut MEFs were treated or not for 6 hours with the indicated concentrations of p8G5 (blue), pre084 (purple), or NE-100 (yellow), washed and stained with Hoechst and JC1 for 30 minutes followed by image acquisition using In-Cell-Analyzer-2000. Shown is the % of red/green JC1 integrated intensity per cell relative to that in untreated WT cells of 2-4 independent experiments.
Following, the cells were washed, stained with Hoechst and JC-1 fluorescent dyes for 30 minutes, and subjected to image acquisition using In-Cell-Analyzer-2000. Shown is cellular content of damaged mitochondria (JC1 green channel, red bars), intact mitochondria (JC1 red channel, green bars) and damaged to intact mitochondria ratio (blue bars). Values of control (vehicle treated) cells was set to 100%.
Mut MEFs were treated with the indicated compounds at 10 μM for 24 hours followed by staining with fluorogenic dyes and image-based single-cell analysis. Shown is average effect on ROS level from at least 3-independent experiments ±SEM. […] Mut MEFs were incubated or not for 24 hours with 10 μM of the indicated compound, washed and stained with Crystal Violet. […] Mut MEFs were incubated or not for 24 hours with 10 μM of the indicated compound, washed and stained with JC1 and Hoechst followed by image-based single-cell analysis. Values of untreated cells were set as 100%. Shown is average of at least 3 independent experiments for each parameter compared to its matching control ±SEM. * p<0.05. Putative targets are indicated.
Mut MEFs were incubated or not for 24 hours with 10 μM of the indicated compounds, washed and stained with Hoechst and JC1 followed by image-based single-cell analysis. […] Mut MEFs were incubated or not with the indicated concentrations of the indicated compounds for 2 hours followed by addition of 50 ng/ml Tunicamycin (Tun) for additional 22 hours, stained with Crystal Violet followed by measurement of absorbance at 570 nm.
MEFs were seeded on 1% gelatin-coated 96-wells plate at a density of 5000 cells per well. 24 hours post-plating the cells were incubated with the tested compounds for additional 24 hours. Several DMSO-treated cells (control) were included in each plate at different locations. Following, the cells were stained by addition of fluorogenic dyes for further 30 minutes incubation at 37° C. […] CellROX was used together with Hoechst and CFSE; JC1 was used together with Hoechst. Cells were washed with Hank's balanced salt solution (HBSS) which was used for images acquisition using IN Cell Analyzer 2000 (GE Healthcare, Pitsburgh, Pa., USA). IN Cell Developer Toolbox 1.9.1 software (GE Healthcare) was used for analysis which included cells segmentation using Hoechst and/or CFSE signals. For analysis of JC1 staining, integrated intensity of green and red emissions were used for detection of damaged and intact mitochondria, respectively.

[3] = tested on: Mut MEFs; assay: Cell survival assay, Crystal violet staining, Mut MEFs; type: cell-based, mouse; conditions: for Survival (%) ± SEM Mut MEFs: 24 hours, untreated cells set to 100%
Procedure: (§1) Cells were seeded on 96-wells plate at a density of 5000 cells per well. Astrocytes were seeded following coating with 0.001% PDL.

[4] = tested on: Mut MEFs; assay: TMRE staining, flow cytometry; type: cell-based, mouse; conditions: 6 hours (FIGS. 5A-B)
Procedure: Mut MEFs were treated or untreated with the indicated concentrations of the indicated Sig-1R binders for 6 hours, stained by TMRE for 30 minutes and analyzed by flow cytometry. Shown are flow cytometry histograms and bar graphs representing % mean TMRE fluorescence intensity relative to non-treated WT cells of a representative experiment.
MEFs were seeded at a density of 4×10^4 cells per well in a 24-wells plate. 24 hours post-plating the cells were incubated with the tested compounds for additional 6 hours followed by staining with 200 nM Tetra-Methyl-Rhodamine-Ethyl esterperchlorate (TMRE) (Abcam) for 30 minutes at 37° C. Cells were removed by trypsinyzation, washed and resuspended in PBS. 5-10×10^3 cells were analyzed by Stratedigm S1000EXi cell sorter and FlowJo software (FLOWJO, LLC, Ashland, Oreg., USA).

[5] = tested on: Mut MEFs; assay: Oxygen consumption (Seahorse XF Cell Mito Stress Test), MEFs; type: cell-based, mouse; conditions: for maximal respiration rate per mitochondrial content: 1 μM, 6 hours (FIG. 8C); for basal and ATP-linked respiration rate per mitochondrial DNA content: 6 hours (FIGS. 8A-B)
Procedure: Mut MEFs were treated or not for 6 hours with the indicated concentrations of the indicated Sig-1R binders. Oxygen consumption was measured in a XF96 Extracellular Flux Analyzer using the Seahorse XF Cell Mito Stress Test Kit. The Basal respiration (FIG. 7A) and ATP-linked respiration (FIG. 7B) data were normalized to biomass as determined by Crystal Violet staining.
Mut MEFs were treated or not for 6 hours with the indicated concentrations of the indicated Sig-1R binders. Oxygen consumption was measured in a XF96 Extracellular Flux Analyzer using the Seahorse XF Cell Mito Stress Test Kit. The Basal respiration (FIG. 8A), ATP-linked respiration (FIG. 8B) and maximal respiration (FIG. 8C) data was normalized to mtDNA content as detailed in FIG. 2.
(§2) The data were normalized to cell number, obtained by Crystal Violet staining, or to mtDNA content.

[6] = tested on: Mut MEFs; assay: mtDNA quantification (qPCR of mitochondrial 12S rRNA and nuclear 18S rRNA genes), MEFs; type: cell-based, mouse; conditions: 6 hours incubation (FIG. 2)
Procedure: DNA extracted from WT and Mut MEFs that were treated or not for 6 hours with 0.1 μM, 1 μM or 10 μM of p8G5 (blue), Pre084 (known SIG-1R agonist, purple), pridopidine (known SIG-1R agonists, green) or NE-100 (known SIG-1R antagonist, yellow) was subjected to qPCR analysis of mitochondrial 12S rRNA and nuclear 18S rRNA genes.

[7] = tested on: Mut primary astrocytes; assay: Oxygen consumption (OCR), primary astrocytes; type: cell-based, mouse; conditions: 1 or 10 μm, 6 hours, normalized to cell number (FIGS. 17B-C)
Procedure: (§3) Shown is average relative quantity (RQ) of 2-6 independent experiments normalized to their untreated controls ±SEM. […] Values of ATP-linked respiration (FIG. 17B) and maximal respiration (FIG. 17C) were analyzed and normalized to cell number.
as §2

[8] = tested on: Mut primary astrocytes; assay: mtDNA quantification, primary astrocytes; type: cell-based, mouse; conditions: 1 or 10 μm, 6 hours (FIG. 17A)
Procedure: as §3

[9] = tested on: Mut astrocytes; assay: Survival under Tunicamycin-induced ER stress, Crystal Violet, astrocytes; type: cell-based, mouse; conditions: 30 μM, 50 ng/ml Tunicamycin last 22 hours (FIG. 19)
Procedure: WT and Mut astrocytes were treated or not for 24 hours with 20, 30 or 50 μM of the indicated Sig-1R binders in the presence of 50 ng/ml Tunicamycin (Tun) during the last 22 hours. Following, the cells were washed, fixated and stained with Crystal Violet (CV) followed by measurement of absorbance at 570 nm. Shown is % of CV staining relative to cells not treated with tunicamycin nor Sig-1R binder ±SEM of 3 independent experiments, *p<0.05.
as §1

[10] = tested on: Mut astrocytes; assay: Cell survival assay, Crystal violet staining, Mut astrocytes; type: cell-based, mouse; conditions: 24 hours, untreated cells set to 100%
Procedure: as §1

[11] = tested on: WT astrocytes; assay: Cell survival assay, Crystal violet staining, WT astrocytes; type: cell-based, mouse; conditions: 24 hours, untreated cells set to 100%
Procedure: as §1

[12] = tested on: Mut MEFs; assay: Survival under Tunicamycin-induced ER stress, Crystal Violet, MEFs; conditions: 30 μM, 24 hours, Tunicamycin during the last 22 hours (FIGS. 9 and 18)
Procedure: Mut MEFs were treated or not for 24 hours with the indicated concentrations of the indicated Sig-1R binders in the presence of 0.1 μg/ml Tunicamycin (Tun) during the last 22 hours. Following, the cells were washed, fixated and stained with Crystal Violet (CV) followed by measurement of absorbance at 570 nm. Shown is average % of CV staining relative to cells not treated with tunicamycin nor Sig-1R binder ±SEM of 3 independent experiments. *p<0.03.
Following, the cells were washed, fixated and stained with Crystal Violet and absorbance at 570 nm was measured. Data is presented relative to cells of the corresponding genotype not treated with p8G5 nor Tunicamycin. Shown is average % of CV staining ±SEM of 3 independent experiments.
Mut MEFs were treated or not for 24 hours with 10, 20 or 30 μM of the indicated Sig-1R binders in the presence of 50 ng/ml Tunicamycin (Tun) during the last 22 hours. Following, the cells were washed, fixated and stained with Crystal Violet (CV) followed by measurement of absorbance at 570 nm. Shown is % of CV staining relative to cells not treated with tunicamycin nor Sig-1R binder ±SEM of 3 independent experiments, *p<0.05.
Mut MEFs were incubated or not with the indicated concentrations of the indicated compounds for 2 hours followed by addition of 50 ng/ml Tunicamycin (Tun) for additional 22 hours, stained with Crystal Violet followed by measurement of absorbance at 570 nm. Shown is average normalized to Tun-treated cells without any compound ±SEM of 3 independent experiments. * not significant; ** p<0.02; *** all values p<0.04.

[13] = Mutant MEFs, 1 μM, 24 hours (FIG. 12)

Question: Which results are given for `CC1=C2C[C@H]3[C@@H](CC=C4C[C@@H](O)CC[C@@]43C)[C@@H]2CC[C@]12O[C@@H]1C[C@H](C)CN[C@H]1[C@H]2C` [Cyclopamine, reference compound]?
Answer: neurite length, neurite branch points, cell body clusters and cell body cluster area [1]: positive effect; content of damaged mitochondria (JC1 green channel) [2, 13]: decreased content of damaged mitochondria; content of intact mitochondria (JC1 red channel) [2, 13]: increased content of intact mitochondria; Survival (%) ± SEM Mut MEFs ([3]; 0.1 μM): 92 ± 2.5%; Survival (%) ± SEM Mut MEFs ([3]; 1 μM): 95 ± 4.1%; Survival (%) ± SEM Mut MEFs ([3]; 10 μM): 79 ± 1.4%

Question: For `CCCN1CCC(c2cccc(S(C)(=O)=O)c2)CC1` [pridopidine, 4-(3-(Methylsulfonyl)phenyl)-1-propylpiperidine], which “TMRE staining (mitochondrial membrane potential)” value ([4]; 10 μM) is on record?
Answer: increased TMRE staining to a level above that of untreated WT cells

Question: What about the “maximal respiration rate per mitochondrial content” value [5] of the same compound?
Answer: increased the maximal respiration capacity per mitochondria to the level of untreated WT cells

Question: And the “basal and ATP-linked respiration rate per mitochondrial DNA content” value [5]?
Answer: beneficial effect

Question: And the “mitochondrial content in Mut MEFs” value ([6]; 1 μM-10 μM)?
Answer: lowered the abnormal high mitochondrial content

Question: And the “ATP-linked and maximal respiration in mutant astrocytes” value [7]?
Answer: increased both ATP-linked and maximal respiration

Question: And the “mitochondrial content per cell in astrocytes” value [8]?
Answer: no effect on mitochondrial content per cell

Question: And the “survival rate of Mut astrocytes under ER-stress conditions” value [9]?
Answer: increased the survival rate

Question: With `O=C(OCCN1CCOCC1)C1(c2ccccc2)CCCCC1` [pre084, 2-morpholin-4-ylethyl 1-phenylcyclohexane-1-carboxylate] as the compound, how does the “TMRE staining (mitochondrial membrane potential)” value ([4]; 1 μM) read?
Answer: increased TMRE staining to a level above that of untreated WT cells

Question: What about the “Survival (%) ± SEM Mut astrocytes” value ([10]; 1 μM) of the same compound?
Answer: 97 ± 0.5%

Question: And the “Survival (%) ± SEM Mut astrocytes” value ([10]; 10 μM)?
Answer: 93 ± 5.1%

Question: And the “Survival (%) ± SEM Mut astrocytes” value ([10]; 30 μM)?
Answer: 76 ± 4.9%

Question: And the “maximal respiration rate per mitochondrial content” value [5]?
Answer: increased the maximal respiration capacity per mitochondria to the level of untreated WT cells

Question: What about the “basal and ATP-linked respiration rate per mitochondrial DNA content” value [5] of the same compound?
Answer: statistically significant increase

Question: And the “basal respiration and ATP-linked respiration per cell (OCR)” value ([5]; 6 hours, normalized to biomass (FIGS. 7A-B))?
Answer: no effect

Question: What about the “mitochondrial content in Mut MEFs” value ([6]; 0.1 μM-1 μM) of the same compound?
Answer: lowered the abnormal high mitochondrial content

Question: And the “ATP-linked and maximal respiration in mutant astrocytes” value [7]?
Answer: increased both ATP-linked and maximal respiration

Question: What about the “mitochondrial content per cell in astrocytes” value [8] of the same compound?
Answer: no effect on mitochondrial content per cell

Question: What about the “red/green JC1 signal (mitochondria with high to low membrane potential)” value ([2]; Mut MEFs, 1 μM and 10 μM, 6 hours (FIG. 6)) of the same compound?
Answer: increased the ratio between the content of mitochondria with high to low membrane potential

Question: And the “Survival (%) ± SEM WT astrocytes” value ([11]; 1 μM)?
Answer: 114 ± 7.9%

Question: And the “Survival (%) ± SEM WT astrocytes” value ([11]; 10 μM)?
Answer: 95 ± 2.3%

Question: What about the “Survival (%) ± SEM WT astrocytes” value ([11]; 30 μM) of the same compound?
Answer: 82 ± 1.9%

Question: And the “survival of Mut MEFs under Tunicamycin ER-stress” value [12]?
Answer: able to rescue mutant MEFs

Question: And the “Survival (%) ± SEM Mut MEFs” value ([3]; 0.1 μM)?
Answer: 100 ± 2.1%

Question: And the “Survival (%) ± SEM Mut MEFs” value ([3]; 1 μM)?
Answer: 101 ± 3.5%

Question: And the “Survival (%) ± SEM Mut MEFs” value ([3]; 10 μM)?
Answer: 99 ± 1.5%

Question: And the “Survival (%) ± SEM Mut MEFs” value ([3]; 20 μM)?
Answer: 97 ± 2.1%

Question: What about the “Survival (%) ± SEM Mut MEFs” value ([3]; 30 μM) of the same compound?
Answer: 105 ± 1.9%

Question: And the “Survival (%) ± SEM Mut MEFs” value ([3]; 50 μM)?
Answer: 80 ± 2.8%

Question: And the “Survival (%) ± SEM Mut MEFs” value ([3]; 100 μM)?
Answer: 57 ± 2.2%

Question: What about the “effect on survival of Mut cells” value ([3]; as high as 30 μM (FIG. 4, Table 3)) of the same compound?
Answer: did not have any negative effect on the survival
